In patent US20190031665A1, “DERIVATIVES OF PYRROLOIMIDAZOLE OR ANALOGUES THEREOF WHICH ARE USEFUL FOR THE TREATMENT OF INTER ALIA CANCER” (EMCURE PHARMACEUTICALS LIMITED, priority 2016, published 2019):
pIC50: −log10 of the molar value.

How the values were obtained:
[1] = target: T1, human indoleamine 2,3-dioxygenase 1 (hIDO1) (Homo sapiens, UniProt P14902); assay: In-vitro human indoleamine 2,3-dioxygenase 1 (IDO1) enzyme assay; type: biochemical; details: for pIC50: hIDO1 enzyme; for inhibition at 1 µM: hIDO1 enzyme at 1.0 μM concentration; for inhibition at 10 µM: hIDO1 enzyme at 10.0 μM concentration
T1 construct: His tag (N); purchased BPS Bioscience, San Diego, Calif., USA; host or cells: E. coli
Method: (§1) In-vitro human indoleamine 2,3-dioxygenase 1 (IDO1) enzyme assay: In the in-vitro human indoleamine 2,3-dioxygenase 1 (hIDO1) enzyme assay for screening inhibitor compounds, hIDO1 with an N-terminal histidine tag expressed and purified from E. coli (BPS Bioscience, San Diego, Calif., USA) was used. All other materials were procured from Sigma-Aldrich, St. Louis, Mo., USA.
The assay method for monitoring the conversion of L-tryptophan to N-formylkynurenine by hlDO1 was carried out as follows. hlDO1 (50 ng) was incubated with tryptophan (80 μM) in the presence of ascorbic acid (10 mM), methylene blue (10 μM), catalase (100 μg/ml) and 0.01% Tween-20 in sodium phosphate buffer (50 mM; pH 6.5) at 37° C. for 60 min. The reaction was terminated with 200 mM piperidine (PIP) and further incubated at about 65° C. for about 20 minutes to convert N-formylkynurenine (NFK) to NFK-PIP. The reaction mixture was then incubated at room temperature for about 1 hour. The fluorescence intensity was read in a fluorescence microplate reader at an excitation wavelength of 400 nm and emission wavelength of 500 nm. Percent inhibition at each concentration of test compounds was determined by estimating the decrease in NFK-PIP. Data were analyzed using nonlinear regression to generate IC50 values using Graph Pad Prism® 6.

[2] = target: T2, human tryptophan 2,3-dioxygenase (hTDO) (Homo sapiens, UniProt P48775); assay: In-vitro human tryptophan 2,3-dioxygenase (TDO) enzyme assay; type: biochemical; details: for inhibition at 1 µM: hTDO enzyme at 1.0 μM concentration; for inhibition at 10 µM: hTDO enzyme at 10.0 μM concentration
T2 construct: His tag (N); purchased BPS Bioscience, San Diego, Calif., USA; host or cells: E. coli
Method: as §1, with “In” for “In-vitro human indoleamine 2,3-dioxygenase 1 (IDO1) enzyme assay: In”, “tryptophan” for “indoleamine”, “(hTDO)” for “1 (hIDO1)”, “hTDO” for “hIDO1”
The assay monitoring method for the conversion of L-tryptophan to N-formylkynurenine by hTDO was carried out as follows. hTDO (125 ng) was incubated in the presence of 200 μM L-tryptophan, 100 mM sodium phosphate buffer (pH 7.0), 0.01% Tween-20 and 100 μM ascorbic acid at about 37° C. for about 60 minutes. The reaction was terminated with 200 mM piperidine (PIP) and further incubated at about 65° C. for about 20 minutes to convert N-formylkynurenine (NFK) to NFK-PIP. The reaction mixture was then incubated at room temperature for about 75 minutes. The fluorescence intensity was read in a fluorescence microplate reader at an excitation wavelength of 400 nm and emission wavelength of 500 nm. Percent inhibition at each concentration of test compounds was determined by estimating the decrease in NFK-PIP. Data were analyzed using nonlinear regression to generate IC50 values using Graph Pad Prism® 6.

T1 sequence (P14902 whole entry): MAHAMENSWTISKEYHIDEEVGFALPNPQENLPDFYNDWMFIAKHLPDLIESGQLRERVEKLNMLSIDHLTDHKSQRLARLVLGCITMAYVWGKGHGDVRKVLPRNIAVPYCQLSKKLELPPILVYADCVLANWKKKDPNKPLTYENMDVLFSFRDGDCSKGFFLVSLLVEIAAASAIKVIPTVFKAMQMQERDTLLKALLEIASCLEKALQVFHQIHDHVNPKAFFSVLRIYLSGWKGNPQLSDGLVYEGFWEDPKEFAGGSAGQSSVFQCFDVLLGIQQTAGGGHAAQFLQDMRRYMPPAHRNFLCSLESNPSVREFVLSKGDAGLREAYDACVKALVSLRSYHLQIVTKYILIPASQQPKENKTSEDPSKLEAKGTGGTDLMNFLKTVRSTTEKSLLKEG
T2 sequence (P48775 whole entry): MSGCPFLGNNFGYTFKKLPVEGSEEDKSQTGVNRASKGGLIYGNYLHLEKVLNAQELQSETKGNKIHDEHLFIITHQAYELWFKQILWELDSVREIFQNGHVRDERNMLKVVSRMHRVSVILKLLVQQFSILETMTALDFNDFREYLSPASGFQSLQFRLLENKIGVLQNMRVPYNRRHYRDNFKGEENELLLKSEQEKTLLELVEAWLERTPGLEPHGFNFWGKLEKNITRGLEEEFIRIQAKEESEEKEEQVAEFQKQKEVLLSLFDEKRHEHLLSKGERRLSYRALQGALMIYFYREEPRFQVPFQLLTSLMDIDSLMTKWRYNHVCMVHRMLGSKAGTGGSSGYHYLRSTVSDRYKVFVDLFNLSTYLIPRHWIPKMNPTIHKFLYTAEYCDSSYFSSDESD

Row | Compound | pIC50 [1] | inhibition at 1 µM [1] [%] | inhibition at 10 µM [1] [%] | inhibition at 1 µM [2] [%] | inhibition at 10 µM [2] [%]
1 | CC1=C(c2ccccc2)C(CC(=O)c2ccc(-c3ccc(O)cc3)cc2)n2cncc21 (centres unmarked) [Example 57] | > 6.30 | ≥ 50 | ≥ 50 | ≤ 50 | 
2 | CC1=C(c2ccccc2)C(CC(=O)c2ccc(OCc3ccccc3)cc2)n2cncc21 (centres unmarked) [Example 75, 1-(4-(benzyloxy)phenyl)-2-(7-methyl-6-phenyl-5H-pyrrolo[1,2-c]imidazol-5-yl)ethan-1-one] | > 6.30 | ≥ 50 | ≥ 50 | ≥ 50 | 
3 | CC1=C(c2ccccc2)C(CC(=O)c2ccc(Oc3ccccc3F)cc2)n2cncc21 (centres unmarked) [Example 76, 1-(4-(2-fluorophenoxy)phenyl)-2-(7-methyl-6-phenyl-5H-pyrrolo[1,2-c]imidazol-5-yl)ethan-1-one] | > 6.30 | ≥ 50 | ≥ 50 | ≤ 50 | 
4 | CC1=C(c2ccccc2)C(CC(=O)c2ccc(N(C)C)cc2)n2cncc21 (centres unmarked) [Example 46, 1-(4-(dimethylamino)phenyl)-2-(7-methyl-6-phenyl-5H-pyrrolo[1,2-c]imidazol-5-yl)ethan-1-one] |  | ≤ 50 | ≥ 50 | ≥ 50 | 
5 | CCOC(=O)CC1C(c2ccccc2)=C(C)c2cncn21 (centres unmarked) [Example 22] |  | ≤ 50 | ≥ 50 |  | ≥ 50
6 | CC1=C(c2ccccc2)C(CC(=O)c2ccc(-c3cnc[nH]3)cc2)n2cncc21 (centres unmarked) [Example 67] | < 6.30 | ≥ 50 | ≥ 50 | ≥ 50 | 
7 | CC1=C(c2ccccc2)C(CC(=O)c2cccc(Cl)c2)n2cncc21 (centres unmarked) [Example 17, 1-(3-Chloro-phenyl)-2-(7-methyl-6-phenyl-5H-pyrrolo[1,2-c]imidazol-5-yl)-ethanone] | > 6.30 | ≥ 50 | ≥ 50 | ≥ 50 | ≥ 50
8 | CC1=C(c2ccccc2)C(CC(=O)c2ccc(C(=O)Nc3cccnc3)cc2)n2cncc21 (centres unmarked) [Example 79] | < 6.30 | ≥ 50 | ≥ 50 | ≥ 50 | 
9 | OC(CC1C2=C(CCCC2)c2cncn21)c1cccc(Cl)c1 (centres unmarked) [Example 4] |  |  | ≤ 50 |  | ≥ 50
10 | CC1=C(c2ccccc2)C(CC(=O)c2ccc(-c3ccc(C)cc3)cc2)n2cncc21 (centres unmarked) [Example 62] | > 6.30 | ≥ 50 | ≥ 50 | ≥ 50 | 
11 | CC1=C(c2ccccc2)C(CC(=O)c2ccccc2)n2cncc21 (centres unmarked) [Example 11, 2-(7-Methyl-6-phenyl-5H-pyrrolo[1,2-c]imidazol-5-yl)-1-phenyl-ethanone] | < 6.30 |  | ≥ 50 |  | ≥ 50
12 | COC(=O)c1cccc(C(=O)CC2C(c3ccccc3)=C(C)c3cncn32)c1 (centres unmarked) [Example 23, 3-[2-(7-Methyl-6-phenyl-5H-pyrrolo[1,2-c]imidazol-5-yl)-acetyl]-benzoic acid methyl ester] |  | ≤ 50 | ≥ 50 | ≥ 50 | ≥ 50
13 | CC1=C(c2ccccc2)C(CC(O)c2ccc(F)cc2)n2cncc21 (centres unmarked) [Example 35, 1-(4-fluorophenyl)-2-(7-methyl-6-phenyl-5H-pyrrolo[1,2-c]imidazol-5-yl)ethan-1-ol] |  | ≤ 50 | ≥ 50 | ≥ 50 | 
14 | CNC(=O)c1ccc(C(=O)CC2C(c3ccccc3)=C(C)c3cncn32)cc1 (centres unmarked) [Example 78] |  | ≥ 50 | ≥ 50 | ≥ 50 | ≥ 50
15 | OC(CC1C2=C(CCCC2)c2cncn21)c1cccc(OCc2ccccc2)c1 (centres unmarked) [Example 8] |  |  | ≤ 50 |  | ≥ 50

Other lines, results leading:

Row | pIC50 [1] | inhibition at 1 µM [1] [%] | inhibition at 10 µM [1] [%] | inhibition at 1 µM [2] [%] | inhibition at 10 µM [2] [%] | Compound
16 |  | ≥ 50 | ≥ 50 | ≥ 50 |  | CC1=C(c2ccccc2)C(CC(=O)C2CCC(c3ccccc3)CC2)n2cncc21 (centres unmarked) [Example 136]
17 | > 6.30 | ≥ 50 | ≥ 50 | ≥ 50 |  | CC1=C(c2ccccc2)C(CC(O)C2CCN(C(=O)Nc3ccccc3)CC2)n2cncc21 (centres unmarked) [Example 158, 4-[1-Hydroxy-2-(7-methyl-6-phenyl-5H-pyrrolo[1,2-c]imidazol-5-yl)-ethyl]-piperidine-1-carboxylic acid phenyl amide]
18 |  | ≤ 50 | ≥ 50 | ≥ 50 |  | CC1=C(c2ccccc2)C(C[C@@H](O)C2CCCN2S(=O)(=O)c2ccc(C)cc2)n2cncc21 (some centres unmarked) [Example 114]
19 |  | ≥ 50 | ≥ 50 | ≤ 50 |  | CC1=C(c2ccccc2)C(C[C@H](O)C2CCC(C(=O)N3CCC(O)CC3)CC2)n2cncc21 (some centres unmarked) [Example 125]
20 | < 6.30 | ≤ 50 | ≥ 50 | ≥ 50 | ≥ 50 | CCCCC(O)CC1C(c2ccccc2)=C(C)c2cncn21 (centres unmarked) [Example 170, 1-(7-Methyl-6-phenyl-5H-pyrrolo[1,2-c]imidazole-5-yl)-hexan-2-ol]
21 | > 6.30 | ≥ 50 | ≥ 50 | ≤ 50 |  | CCOC(=O)N1CCC(C(O)CC2C(c3ccccc3)=C(C)c3cncn32)CC1 (centres unmarked) [Example 148]
22 |  | ≤ 50 | ≥ 50 | ≥ 50 |  | CC1=C(c2ccccc2)C(CC(=O)C2CCN(C(=O)c3ccccc3)CC2)n2cncc21 (centres unmarked) [Example 142]
23 | > 6.30 | ≥ 50 | ≥ 50 | ≤ 50 |  | CC1=C(c2ccccc2)C(CC(O)C2CCC(=NO)CC2)n2cncc21 (centres unmarked) [Example 178, 4-[1-Hydroxy-2-(7-methyl-6-phenyl-5H-pyrrolo[1,2-c]imidazol-5-yl)-ethyl]-cyclohexanone oxime]
24 |  | ≥ 50 | ≥ 50 | ≥ 50 |  | CC1=C(c2ccccc2)C(CC(=O)C2CCN(C(=O)Cc3ccccc3F)CC2)n2cncc21 (centres unmarked) [Example 138, 2-(2-Fluorophenyl)-1-(4-(2-(7-methyl-6-phenyl-5H-pyrrolo[1,2-c]imidazol-5-yl)acetyl)piperidin-1-yl)ethan-1-one]
25 |  | ≤ 50 | ≥ 50 | ≥ 50 |  | CC1=C(c2ccccc2)C(CC(=O)C2CCN(S(=O)(=O)c3ccccc3)CC2)n2cncc21 (centres unmarked) [Example 143]
26 | > 6.30 | ≥ 50 | ≥ 50 | ≥ 50 |  | CC1=C(c2ccccc2)C(C[C@H](O)C2CCC(C(=O)OC(C)(C)C)CC2)n2cncc21 (stereo in doubt) [Example 185]
27 | > 6.30 | ≥ 50 | ≥ 50 | ≥ 50 |  | CC1=C(c2ccccc2)C(C[C@H](O)C2CCC(C(=O)Nc3ccncc3)CC2)n2cncc21 (some centres unmarked) [Example 119]
28 | > 6.30 | ≥ 50 | ≥ 50 | ≥ 50 |  | CCOC(=O)C1CCC([C@@H](O)CC2C(c3ccccc3)=C(C)c3cncn32)CC1 (stereo in doubt) [Example 189]
29 | > 6.30 | ≥ 50 | ≥ 50 | ≥ 50 |  | CC1=C(c2ccccc2)C(CC(=O)c2ccc(NC(=O)Cc3ccccc3F)cc2)n2cncc21 (centres unmarked) [Example 176, 2-(2-fluorophenyl)-N-(4-(2-(7-methyl-6-phenyl-5H-pyrrolo[1,2-c]imidazol-5-yl)acetyl)phenyl)acetamide]
30 |  | ≤ 50 | ≤ 50 | ≥ 50 |  | CC1=C(c2ccc(C)cc2)C(CC(=O)C2CCCCC2)n2cncc21 (centres unmarked) [Example 86, 1-Cyclohexyl-2-(7-methyl-6-(p-tolyl)-5H-pyrrolo[1,2-c]imidazol-5-yl)ethan-1-one]
31 |  | ≤ 50 | ≤ 50 | ≤ 50 |  | CC1=C(c2ccccc2)C(C[C@@H](O)C2CCCN2C(=O)c2ccccc2)n2cncc21 (some centres unmarked) [Example 116]
